# Data reported in PMC5428521, “Identification of a Novel, Small Molecule Partial Agonist for the Cyclic AMP Sensor, EPAC1” (Scientific Reports, 2017).
# Values joined by “and” are separate entries in the source; they are usually repeats but may differ in a detail not shown here. Equal entries are not always repeated.
# Columns and labels:
# [1] = target: T1, EPAC2 (amino acids 280–993) (Mus musculus, UniProt Q9EQZ6); assay: In vitro GEF activity assay (MANT-GDP dissociation from Rap1), EPAC2; assay type: biochemical; conditions: for IC50: IC50, GEF Inhibition (with cAMP), 50 μM cAMP; for GEF Activation (no cAMP), AC50 / induced EPAC2 activity: absence of cAMP, N/A = inability to promote GEF activity of EPAC2
# T1 construct: EPAC2 (amino acids 280–993); made in house; host or cells: bacteria
# T1 sequence (Q9EQZ6 280-993 isoform Q9EQZ6-3): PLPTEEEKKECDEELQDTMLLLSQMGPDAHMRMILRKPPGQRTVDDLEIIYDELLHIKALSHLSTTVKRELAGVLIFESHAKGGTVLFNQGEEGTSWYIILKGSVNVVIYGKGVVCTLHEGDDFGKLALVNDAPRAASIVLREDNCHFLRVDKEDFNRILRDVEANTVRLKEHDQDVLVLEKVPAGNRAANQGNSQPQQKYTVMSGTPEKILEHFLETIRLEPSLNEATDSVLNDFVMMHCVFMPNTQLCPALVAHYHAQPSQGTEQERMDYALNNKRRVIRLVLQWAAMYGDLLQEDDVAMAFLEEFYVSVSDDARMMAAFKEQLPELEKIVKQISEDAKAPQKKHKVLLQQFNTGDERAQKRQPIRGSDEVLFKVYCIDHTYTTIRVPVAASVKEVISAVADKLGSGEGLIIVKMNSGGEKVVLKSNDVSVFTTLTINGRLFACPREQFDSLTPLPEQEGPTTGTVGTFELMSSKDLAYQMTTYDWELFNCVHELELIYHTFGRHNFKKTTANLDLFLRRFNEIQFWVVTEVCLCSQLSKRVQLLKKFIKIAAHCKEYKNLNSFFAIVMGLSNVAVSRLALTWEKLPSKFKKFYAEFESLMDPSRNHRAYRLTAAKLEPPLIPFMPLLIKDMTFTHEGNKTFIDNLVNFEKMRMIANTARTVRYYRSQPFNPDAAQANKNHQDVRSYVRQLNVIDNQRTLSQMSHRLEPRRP
# Method: (§1) EPAC1 and EPAC2 in vitro GEF activities were calculated as previously described. Briefly, recombinant EPAC1 (amino acids 149–881) or EPAC2 (amino acids 280–993) were incubated at 100 nM with recombinant Rap1 (200 nM) preloaded with the fluorescent GDP analogue 2′/3′-O-(N-Methylanthraniloyl)guanosine 5-diphosphate (MANT-GDP) in the presence of 20 μM GDP and then the fluorescence intensity was measured at 360/450 nm (ex/em) over time. […] AC50 or IC50 values were determined from the plots of kobs against the concentration of the agonist and antagonist, respectively Table 1.
# [2] = target: T2, EPAC1 (amino acids 149–881) (Homo sapiens, UniProt O95398); assay: In vitro GEF activity assay (MANT-GDP dissociation from Rap1), EPAC1; assay type: biochemical; conditions: for AC50: AC50, GEF Activation (no cAMP), from kobs vs concentration
# T2 construct: recombinant EPAC1 (amino acids 149–881); made in house; host or cells: bacteria
# T2 sequence (O95398 149-881 isoform O95398-3): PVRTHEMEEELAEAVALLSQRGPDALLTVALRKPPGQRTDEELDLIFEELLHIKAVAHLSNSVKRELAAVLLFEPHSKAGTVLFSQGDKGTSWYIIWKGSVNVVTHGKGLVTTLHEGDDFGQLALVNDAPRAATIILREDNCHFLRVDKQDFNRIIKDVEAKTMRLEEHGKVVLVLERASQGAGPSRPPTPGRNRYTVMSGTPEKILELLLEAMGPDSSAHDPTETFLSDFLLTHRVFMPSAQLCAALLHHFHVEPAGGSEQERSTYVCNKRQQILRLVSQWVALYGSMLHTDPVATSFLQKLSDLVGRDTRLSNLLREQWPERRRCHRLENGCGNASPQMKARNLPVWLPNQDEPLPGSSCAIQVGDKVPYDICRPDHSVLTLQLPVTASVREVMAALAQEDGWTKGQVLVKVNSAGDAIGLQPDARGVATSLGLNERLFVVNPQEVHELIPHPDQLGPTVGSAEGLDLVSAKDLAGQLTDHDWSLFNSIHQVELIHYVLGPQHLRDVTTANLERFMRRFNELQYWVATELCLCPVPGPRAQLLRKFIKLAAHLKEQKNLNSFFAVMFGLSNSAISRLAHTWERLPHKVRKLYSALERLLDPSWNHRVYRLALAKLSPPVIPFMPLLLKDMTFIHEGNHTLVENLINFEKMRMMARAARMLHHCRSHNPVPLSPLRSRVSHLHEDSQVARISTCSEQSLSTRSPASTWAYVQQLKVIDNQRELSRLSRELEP
# Method: For this, we used the well-characterised EPAC GEF activity assay. The assay is based on the EPAC-stimulated dissociation of fluorescent MANT-GDP from recombinant Rap1 in the presence of excess non-fluorescent nucleotide.
# The data are fitted as single exponential decay with off-set (red lines) to obtain the rate constants kobs, as shown in (b).
# as §1
SMILES,IC50 [1],"GEF Activation (no cAMP), AC50 / induced EPAC2 activity [1]",IC50 [2],AC50 ([2]; absence of cAMP),"Kd ([1]; read-out: affinity for EPAC2 280–993, approximated)","maximal induced activity, fold lower than that of cAMP ([2]; absence of cAMP)"
"O=C(COc1ccc2ccccc2c1)NS(=O)(=O)c1ccccc1 [I178, N-(benzenesulfonyl)-2-(naphthalen-2-yloxy)acetamide]",250 µM and ~250 µM,very weak,~500 µM,200 µM and ~200 µM,–,–
"Cc1ccc(S(=O)(=O)NC(=O)COc2ccc3ccccc3c2)c(C)c1 [I942, N-(2,4-dimethylbenzenesulfonyl)-2-(naphthalen-2-yloxy)acetamide]",110 µM and ~110 µM,very weak,~300 µM,50 µM and ~50 µM,~5 µM,around 10 fold
